Values quoted from earlier work, collected in patent US20030180373A1, “Method for viral inactivation of hydro-alcoholic solutions” (priority 2000, published 2003).

tested on: viruses of Norwalk and Norwalk type; settings: disinfectants conventionally used; ethanol at a concentration of 75%

SMILES	Effect of the disinfectant on the virus
[Na+].[O-]Cl [bleach]	capable of destroying the virus
CCO [ethanol]	no effect
O=CCCCC=O [glutaraldehyde]	capable of destroying the virus
